In one data set the test system is Plasmodium berghei. Put plainly: Antimalarial activity against Plasmodium berghei ANKA infected in mouse assessed as suppression of parasitaemia at 30 mg/kg, po administered for 3 days measured on day 4 relative to control. It counts as functional.
The subject of data set [1] is Plasmodium falciparum. Put plainly: Antiplasmodial activity against Plasmodium falciparum 3D7 infected in human erythrocytes assessed as [3H]hypoxanthine incorporation after 48 hrs by betaplate liquid scintillation counting analysis. The data set is classed as functional, organism-based.
In data set [2] the test system is Plasmodium falciparum. Put plainly: Antiplasmodial activity against chloroquine-resistant Plasmodium falciparum K1 infected in human erythrocytes assessed as [3H]hypoxanthine incorporation after 48 hrs by betaplate liquid scintillation counting analysis. It counts as functional, organism-based.
The subject of the next data set is Mus musculus. Put plainly: Antimalarial activity against Plasmodium berghei ANKA infected in po dosed mouse assessed as suppression of parasitaemia administered for 3 days measured on day 4 relative to control. It counts as functional.
Data set [3] has as its system Plasmodium falciparum. Put plainly: Selectivity ratio of IC50 for Plasmodium falciparum 3D7 infected in human erythrocytes to IC50 for Plasmodium falciparum K1 infected in human erythrocytes. The data set is classed as functional.
A short description of data set [4]: Metabolic stability in human liver microsomes assessed as compound remaining at 10 ug/ml after 60 mins by LC/MS/MS analysis relative to control. It counts as ADME. To be noted: read-out: Stability.
Data set [5] in a line: Metabolic stability in human liver microsomes assessed as compound remaining at 10 ug/ml after 30 mins by LC/MS/MS analysis relative to control. It counts as ADME. The note with it: read-out: Stability. (Microsomes from liver hold many membrane-bound enzymes, among them those of drug oxidation.)
The nature of data set [6]: Metabolic stability in human liver microsomes assessed as compound remaining at 10 ug/ml after 10 mins by LC/MS/MS analysis relative to control. The data set is classed as ADME. To be noted: read-out: Stability.

pIC50: −log10 of the molar value.

By pIC50 is commonly meant the negative decadic logarithm of the IC50, by convention in mol/L. As usually defined, the ED50 is the midpoint of the dose-response relation.

On to `C1C2CC3CC1CC(C2)C31OOC2(CCC(NC3CC3)CC2)OO1` (stereo not drawn), for which the Activity with Plasmodium berghei came to 99.7%. Further, the pIC50 in the data set with Plasmodium falciparum [1] (Plasmodium falciparum, 3D7) is 8.82.

With `CC(C)(C)NC1CCC2(CC1)OOC1(OO2)C2CC3CC(C2)CC1C3` (stereo not drawn), the Activity with Plasmodium berghei amounted to 98.7%. Moreover, the pIC50 with Plasmodium falciparum [1] (Plasmodium falciparum, 3D7) is 8.89.

Turning to `FC1(F)CCC(NC2CCC3(CC2)OOC2(OO3)C3CC4CC(C3)CC2C4)CC1` (stereo not drawn), the pIC50 in the data set with Plasmodium falciparum [2] was 9.05; in the data set on Plasmodium falciparum [1] (Plasmodium falciparum, 3D7), 9.40.

On to `C1CCN(C2CCC3(CC2)OOC2(OO3)C3CC4CC(C3)CC2C4)C1` (stereo not drawn), for which the pIC50 in the data set on Plasmodium falciparum [2] was 9.00; in the data set with Plasmodium falciparum [1] (Plasmodium falciparum, 3D7) it was 9.15. For the same molecule, the Activity with Plasmodium berghei is given as 99.8%.

Turning to `C1CN(C2CCC3(CC2)OOC2(OO3)C3CC4CC(C3)CC2C4)CCO1` (stereo not drawn), the pIC50 is 9.40 in the data set on Plasmodium falciparum [2] and 9.40 in the data set with Plasmodium falciparum [1] (Plasmodium falciparum, 3D7).

In the case of `C1CCN(C2CCC3(CC2)OOC2(OO3)C3CC4CC(C3)CC2C4)CC1` (stereo not drawn), the pIC50 with Plasmodium falciparum [2] is 9.40; in the data set with Plasmodium falciparum [1] (Plasmodium falciparum, 3D7), 9.22.

Consider `C1CC(NC2CCC3(CC2)OOC2(OO3)C3CC4CC(C3)CC2C4)CCO1` (stereo not drawn), for which, in the data set on Plasmodium falciparum [2], the negative logarithm of the IC50 (pIC50) is 9.40. Also, in the data set with Mus musculus, the ED50 worked out at 2.8 mg/kg and the ED90 is 18 mg/kg. Moreover, the pIC50 with Plasmodium falciparum [1] (Plasmodium falciparum, 3D7) was 9.15.

Consider `C1CCC(NC2CCC3(CC2)OOC2(OO3)C3CC4CC(C3)CC2C4)CC1` (stereo not drawn), for which the pIC50 was 9.70 with Plasmodium falciparum [2] and 9.40 in the data set with Plasmodium falciparum [1] (Plasmodium falciparum, 3D7). Besides, the “Ratio IC50” value with Plasmodium falciparum [3] is 25.

As to `O=S1(=O)CC[N+]([O-])(C2CCC3(CC2)OOC2(OO3)C3CC4CC(C3)CC2C4)CC1` (stereo not drawn), the pIC50 with Plasmodium falciparum [2] is 8.60; in the data set on Plasmodium falciparum [1] (Plasmodium falciparum, 3D7) it was 8.43.

In the case of `C[C@H]1[C@H](OC(=O)CCC(=O)O)O[C@@H]2O[C@@]3(C)CC[C@H]4[C@H](C)CC[C@@H]1[C@@]24OO3` [ARTESUNATE], the pIC50 with Plasmodium falciparum [2] was 8.31. Also, the Activity with Plasmodium berghei stood at 99.6%. In the data set with Mus musculus, the ED50 is 2.8 mg/kg and the ED90 was 18 mg/kg.

Take `CN1CCN(C2CCN(C(=O)CC3CCC4(CC3)OOC3(OO4)C4CC5CC(C4)CC3C5)CC2)CC1` (stereo not drawn): the pIC50 is 8.95 in the data set with Plasmodium falciparum [2] and 9.09 with Plasmodium falciparum [1] (Plasmodium falciparum, 3D7). In data set [4], the remaining at 1 h, 10 ug/ml is 39.5%. Moreover, the remaining at 0.5 h, 10 ug/ml in data set [5] is 40.6%. For the same molecule, the remaining at 10 min, 10 ug/ml in data set [6] was determined as 62.9%.

In the case of `NC1CCN(C2CCC3(CC2)OOC2(OO3)C3CC4CC(C3)CC2C4)CC1` (stereo not drawn), the pIC50 with Plasmodium falciparum [2] and in the data set with Plasmodium falciparum [1] was 8.92 in each case. In addition, in data set [4], the remaining at 1 h, 10 ug/ml worked out at 57.4%. Besides, in data set [5], the remaining at 0.5 h, 10 ug/ml was determined as 73.6%. The remaining at 10 min, 10 ug/ml in data set [6] amounted to 86.7%.

As to `Cc1ccc(S(=O)(=O)O)cc1.NC1CCN(C2CCC3(CC2)OOC2(OO3)C3CC4CC(C3)CC2C4)CC1` (stereo not drawn), the Activity in the data set on Plasmodium berghei turned out to be 99.9%. Moreover, in the data set on Mus musculus, the ED50 came to 3.7 mg/kg and the ED90 worked out at 10 mg/kg. For the same molecule, the pIC50 with Plasmodium falciparum [1] is 8.60.

`C1CCN(C2CCN(C3CCC4(CC3)OOC3(OO4)C4CC5CC(C4)CC3C5)CC2)CC1` (stereo not drawn): the pIC50 with Plasmodium falciparum [2] was 9.70; with Plasmodium falciparum [1] (Plasmodium falciparum, 3D7) it was 8.62. In addition, in the data set with Plasmodium falciparum [3], the “Ratio IC50” value was found to be 25. Further, the Activity with Plasmodium berghei worked out at 99.7%.

As to `CC(C)(C)OC(=O)NC1CCN(C2CCC3(CC2)OOC2(OO3)C3CC4CC(C3)CC2C4)CC1` (stereo not drawn), the pIC50 in the data set on Plasmodium falciparum [1] (Plasmodium falciparum, 3D7) is 9.00.

Regarding `CN1CCC(NC2CCC3(CC2)OOC2(OO3)C3CC4CC(C3)CC2C4)CC1` (stereo not drawn), the pIC50 was 8.96 with Plasmodium falciparum [2] and 9.40 in the data set with Plasmodium falciparum [1] (Plasmodium falciparum, 3D7). The Activity with Plasmodium berghei is reported as 99.2%.

Turning to `FC1(F)CCN(C2CCC3(CC2)OOC2(OO3)C3CC4CC(C3)CC2C4)CC1` (stereo not drawn), in the data set on Plasmodium falciparum [2], the pIC50 is 8.89. The Activity in the data set with Plasmodium berghei amounted to 99.8%. In the data set on Mus musculus, the ED50 was found to be 9.4 mg/kg and the ED90 worked out at 34 mg/kg. Also, the pIC50 with Plasmodium falciparum [1] (Plasmodium falciparum, 3D7) is 9.22.

Regarding `C1CC(NC2CCC3(CC2)OOC2(OO3)C3CC4CC(C3)CC2C4)CCO1.Cl` (stereo not drawn), in the data set on Mus musculus, the ED50 came to 2.3 mg/kg and the ED90 is 11 mg/kg. Moreover, the pIC50 with Plasmodium falciparum [1] was 9.00.

`O=C1CN(C2CCC3(CC2)OOC2(OO3)C3CC4CC(C3)CC2C4)CCN1` (stereo not drawn): the Activity in the data set with Plasmodium berghei is reported as 98.8%. The pIC50 with Plasmodium falciparum [1] (Plasmodium falciparum, 3D7) is 8.46.

The values are drawn from ChEMBL document CHEMBL3217563, “Second generation analogues of RKA182: synthetic tetraoxanes with outstanding in vitro and in vivo antimalarial activities” (Medchemcomm, 2011).
